Measured values taken from patent US7294501B2, “Geldanamycin-producing strains, uses thereof and methods of producing same” (priority 2003, dated 2007).

System: acidiscabies and caviscabies
Test: Geldanamycin activity against other common scab causing species
Assay type: cell-based
Conditions: data not shown

## COC1=C2C[C@@H](C)C[C@H](OC)[C@H](O)[C@@H](C)/C=C(\C)[C@H](OC(N)=O)[C@@H](OC)/C=C\C=C(/C)C(=O)NC(=CC1=O)C2=O [Geldanamycin]
  activity against other common scab causing bacterial species: active
